Assay [1] has as its system Bacillus subtilis. Kind of assay: Bacteriostatic activity against Bacillus subtilis up to 500 ug/ml after 48 hrs. Type of assay: functional, organism-based.
In assay [2] the test system is Escherichia coli. Kind of assay: Bacteriostatic activity against Escherichia coli up to 500 ug/ml after 48 hrs. Type of assay: functional, organism-based.
In assay [3] the test system is Escherichia coli. Kind of assay: Bactericidal activity against Escherichia coli up to 500 ug/ml after 48 hrs. Type of assay: functional, organism-based.
The test system of assay [4] is Bacillus subtilis. Kind of assay: Bactericidal activity against Bacillus subtilis up to 500 ug/ml after 48 hrs. Type of assay: functional, organism-based.
The subject of assay [5] is Bacillus subtilis. Kind of assay: Antibacterial activity against Bacillus subtilis after 48 hrs. Type of assay: functional.

SMILES strings stand for the structures. The source made the active and inactive calls. The calls are words filed in the database; no cut-off is given here.

With `CCCCC[C@@H](C)COC(=O)c1ccncc1`, the outcome in assay [1], in assay [2], in assay [3] and in assay [4] was inactive.
In the case of `CCCCCCCCOC(=O)c1ccncc1`, the outcome in assay [1], in assay [2], in assay [3] and in assay [4] was inactive.
By MIC is commonly meant the lowest concentration found to suppress growth. The molecule `CC1(C)S[C@@H]2[C@H](NC(=O)[C@H](N)c3ccccc3)C(=O)N2[C@H]1C(=O)O` [AMPICILLIN] gave an MIC in assay [5] of less than 10 µg/mL.

Values taken from ChEMBL document CHEMBL3632574, “Synthesis and evaluation of antibacterial activity of (R)-2-methylheptyl isonicotinate, a putative naturally occurring bioactive agent” (2015).
